Here are results for one substance from patent publication US4358461A, “Antiallergic agent” (Takeda Chemical Industries, Ltd., priority 1980, dated 1982).

The subject of the assay is SRS-A. Put plainly: Inhibitory action on the generation and release of SRS-A (sensitized guinea pig lung fragment; method of Orange and Moore, SRS-A assayed by method of Brocklehurst). The format is cell-based, guinea pig (Hartley strain). The conditions noted are these: egg albumin antigen. The text has this: The action of the antiallergic agent of this invention to inhibit the production of SRS-A was investigated by the method of Orange and Moore [J. Immunol.

Take baicalein phosphate disodium [BPS]: the “Inhibitory action (percent inhibition of generation and release of SRS-A due to antigen-antibody interaction)” value was 18.7 ± 6.6% (concentration 10 (so in the source)) and 50.8 ± 10.7% (concentration 100 (so in the source)).
